Reference: the supplement of paper PMC10307832

Legend:
Assay in all cases: relative viability (nuclei count vs DMSO), 5 days (fraction); higher = more cells survive
[1] = compound: CC1(C)CCC(c2ccc(Cl)cc2)=C(CN2CCN(c3ccc(C(=O)NS(=O)(=O)c4ccc(N[C@H](CCN5CCOCC5)CSc5ccccc5)c(S(=O)(=O)C(F)(F)F)c4)cc3)CC2)C1 [Navitoclax]
In short: (§1)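 Vehicle-anchored 1536-well plates of lung cancer cell lines, held overnight at 37 °C, were pinned with five library-drug doses (not always all listed) spaced by √10. No medium change followed over the next 5 days, after which the cells were fixed, permeabilised and Hoechst-stained together and imaged at 4×. Nuclei were counted with MetaXpress, and viability is treated-well nuclei over vehicle-well nuclei, taken as a median across plates. Plates passed with control CV below 25% and at least one doubling.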

[2] = compound: CCCCCCCC[C@H]1[C@@H](C(=C)C(=O)O1)C(=O)O [C-75]
In short: as §1

[3] = compound: NC(=O)Nc1cc(-c2cccc(F)c2)sc1C(=O)N[C@H]1CCCNC1 [AZD7762]
In short: as §1

[4] = compound: O=C(O)c1ccc(-c2c[nH]c3ncc(-c4ccccc4)cc23)cc1C1CCCC1
In short: as §1

[5] = compound: Oc1nc(-c2ccc(C(F)(F)F)cc2)nc2c1CSCC2 [XAV939]
In short: as §1

Cell Line	relative viability ([1]; 0.005 µM)	relative viability ([1]; 0.01581 µM)	relative viability ([1]; 0.05 µM)	relative viability ([1]; 0.1581 µM)	relative viability ([1]; 0.5 µM)	relative viability ([1]; 0.5 µM, anchor plate)	relative viability ([2]; 0.08 µM)	relative viability ([2]; 0.253 µM)	relative viability ([2]; 0.8 µM)	relative viability ([2]; 2.53 µM)	relative viability ([2]; 8 µM)	relative viability ([3]; 0.01 µM)	relative viability ([3]; 0.03162 µM)	relative viability ([3]; 0.1 µM)	relative viability ([3]; 0.2 µM, anchor plate)	relative viability ([3]; 0.3162 µM)	relative viability ([3]; 1 µM)	relative viability ([4]; 0.04 µM)	relative viability ([4]; 0.1265 µM)	relative viability ([4]; 0.4 µM)	relative viability ([4]; 1.265 µM)	relative viability ([5]; 0.08 µM)	relative viability ([5]; 0.253 µM)	relative viability ([5]; 0.8 µM)	relative viability ([5]; 2.53 µM)
NCI-H2405	0.984	1.11	0.996	1.03	0.93	0.845	1.01	0.737	0.948	0.872	1.07	1.02	1.11	1.02	0.763	0.953	0.585	0.998	1.13	0.977	0.741	1.03	0.978	0.966	0.993
NCI-H3122	1.01	0.965	1.06	0.989	0.972	1.01	1	1	0.996	0.692	0.992	1.01	1.02	1.01	0.983	0.88	1.04	0.986	1.04	0.959	0.946	1.01	0.936	1.02	0.966
PC-3 [JPC-3]	1.03	1.07	1.08	1.01	1.02	0.816	0.961	0.97	0.994	0.995	1.16	1.03	1.06	1.1	0.897	1.05	0.931	1.07	1.09	1	0.945	1.02	0.924	1.02	0.947
PC-14	1	1.16	1.05	0.981	0.956	1.01	0.939	0.86	0.902	0.927	1	1.03	0.995	0.931	0.39	0.562	0.368	0.956	1.12	1	0.962	1.1	0.933	0.974	0.885
RERF-LC-KJ	0.973	0.98	0.961	1.01	0.997	0.987	1.02	1.14	0.981	0.95	1.06	0.976	1.03	1.06	1.03	1.04	0.959	1.02	0.96	0.985	0.916	0.968	0.862	0.859	0.743
